Results: PubChem BioAssay AID256 (DTP/NCI, 2004)
“And” between values parts separate entries of the source, which are not always exact repeats. Equal entries are not always repeated. Toxic doses and inconclusive results are not listed. Rule for the calls: active = survival T/C of 150% or more; inactive = T/C below 125% in these data.

Tested on: CD2F1 mice, L1210 leukemia ip, survival T/C
Assay: NCI In Vivo Anticancer Drug Screen. Data for tumor model L1210 Leukemia (intraperitoneal) in CD2F1 (CDF1) mice
Conditions: higher = longer survival
Outline: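 In this screen, transplantable tumors were grown in mice given either the compound or its vehicle. Results were expressed as the treated measurement relative to the control measurement.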

[1] = endpoint: mean survival time, dose: 12.5 mg/kg/injection, schedule: Q04DX002 (ip), vehicle: saline with Tween-80
[2] = endpoint: mean survival time, dose: 100.0 mg/kg/injection, schedule: Q04DX002 (ip), vehicle: saline with Tween-80
[3] = endpoint: mean survival time, dose: 100.0 mg/kg/injection, schedule: Q01DX009 (ip), vehicle: saline with Tween-80
[4] = endpoint: mean survival time, dose: 200.0 mg/kg/injection, schedule: Q01DX009 (ip), vehicle: saline with Tween-80
[5] = endpoint: mean survival time, dose: 400.0 mg/kg/injection, schedule: Q01DX009 (ip), vehicle: saline with Tween-80
[6] = endpoint: mean survival time, dose: 100.0 mg/kg/injection, schedule: Q01DX001 (ip), vehicle: saline
[7] = endpoint: mean survival time, dose: 100.0 mg/kg/injection, schedule: Q04DX003 (ip), vehicle: saline with Tween-80
[8] = endpoint: mean survival time, dose: 200.0 mg/kg/injection, schedule: Q04DX003 (ip), vehicle: saline with Tween-80
[9] = endpoint: mean survival time, dose: 400.0 mg/kg/injection, schedule: Q04DX003 (ip), vehicle: saline with Tween-80

Measured: T/C

O=C1C(Cl)=C(Nc2cccc(Cl)c2)C(=O)c2ccccc21
inactive: endpoint: mean survival time, dose: 100.0 mg/kg/injection, schedule: Q04DX002 (ip), vehicle: other 90 % of control | endpoint: mean survival time, dose: 200.0 mg/kg/injection, schedule: Q04DX002 (ip), vehicle: other 94 % of control | endpoint: mean survival time, dose: 400.0 mg/kg/injection, schedule: Q04DX002 (ip), vehicle: other 105 % of control

c1cncc(-c2nnc(-c3cccnc3)o2)c1
inactive: endpoint: mean survival time, dose: 1.56 mg/kg/injection, schedule: Q04DX002 (ip), vehicle: saline with Tween-80 101 % of control | endpoint: mean survival time, dose: 3.13 mg/kg/injection, schedule: Q04DX002 (ip), vehicle: saline with Tween-80 104 % of control | endpoint: mean survival time, dose: 6.25 mg/kg/injection, schedule: Q04DX002 (ip), vehicle: saline with Tween-80 104 % of control | [1] 104 % of control | [2] 87 % of control | endpoint: mean survival time, dose: 200.0 mg/kg/injection, schedule: Q04DX002 (ip), vehicle: saline with Tween-80 87 % of control

NNc1ccc(-c2ccc(NN)cc2)cc1
inactive: [3] 101 % of control | [4] 95 % of control | [5] 96 % of control

NC(=O)NC1CC1(c1ccccc1)c1ccccc1 (stereo unspecified)
inactive: endpoint: mean survival time, dose: 177.0 mg/kg/injection, schedule: Q01DX001 (ip), vehicle: other 94 % of control | endpoint: mean survival time, dose: 267.0 mg/kg/injection, schedule: Q01DX001 (ip), vehicle: other 96 % of control | endpoint: mean survival time, dose: 400.0 mg/kg/injection, schedule: Q01DX001 (ip), vehicle: other 100 % of control

COCCOCCOCCOCCOCCN
inactive: endpoint: mean survival time, dose: 100.0 mg/kg/injection, schedule: Q04DX003 (ip), vehicle: saline 103 % of control | endpoint: mean survival time, dose: 200.0 mg/kg/injection, schedule: Q04DX003 (ip), vehicle: saline 101 % of control | endpoint: mean survival time, dose: 400.0 mg/kg/injection, schedule: Q04DX003 (ip), vehicle: saline 103 % of control

COC1SCCCS1
inactive: [1] 97 % of control | endpoint: mean survival time, dose: 25.0 mg/kg/injection, schedule: Q04DX002 (ip), vehicle: saline with Tween-80 108 % of control | endpoint: mean survival time, dose: 50.0 mg/kg/injection, schedule: Q04DX002 (ip), vehicle: saline with Tween-80 105 % of control

C1CCC(C2CCCC[N-]2)[N-]C1.CCC(C)C([NH-])C(=O)O.[Cl][Pt] (stereo unspecified)
inactive: endpoint: median survival time, dose: 10.0 mg/kg/injection, schedule: Q04DX003 (ip), vehicle: saline 101 % of control | endpoint: median survival time, dose: 20.0 mg/kg/injection, schedule: Q04DX003 (ip), vehicle: saline 98 % of control | endpoint: median survival time, dose: 40.0 mg/kg/injection, schedule: Q04DX003 (ip), vehicle: saline 101 % of control | endpoint: median survival time, dose: 80.0 mg/kg/injection, schedule: Q04DX003 (ip), vehicle: saline 98 % of control

CC([NH-])CC(C)[NH-].[I][Pt+2][I] (stereo unspecified)
inactive: endpoint: mean survival time, dose: 6.25 mg/kg/injection, schedule: Q04DX003 (ip), vehicle: saline with Tween-80 113 % of control | endpoint: mean survival time, dose: 12.5 mg/kg/injection, schedule: Q04DX003 (ip), vehicle: saline with Tween-80 121 % of control

O=C(C=C(C(F)(F)F)C(F)(F)F)c1ccccc1Cl
inactive: endpoint: mean survival time, dose: 12.5 mg/kg/injection, schedule: Q01DX009 (ip), vehicle: saline with Tween-80 103 % of control | endpoint: mean survival time, dose: 25.0 mg/kg/injection, schedule: Q01DX009 (ip), vehicle: saline with Tween-80 102 % of control

C1CCC2(CC1)OCCS2
inactive: [6] 96 % of control | endpoint: mean survival time, dose: 200.0 mg/kg/injection, schedule: Q01DX001 (ip), vehicle: saline 94 % of control

CSc1cc(N)nc2c1nnn2C1OC(CO)C(O)C1O (stereo unspecified)
inactive: endpoint: mean survival time, dose: 12.5 mg/kg/injection, schedule: Q01DX005 (ip), vehicle: water 94 % of control | endpoint: mean survival time, dose: 25.0 mg/kg/injection, schedule: Q01DX005 (ip), vehicle: water 100 % of control | endpoint: mean survival time, dose: 50.0 mg/kg/injection, schedule: Q01DX005 (ip), vehicle: water 95 % of control | endpoint: mean survival time, dose: 100.0 mg/kg/injection, schedule: Q01DX005 (ip), vehicle: water 90 % of control | endpoint: mean survival time, dose: 200.0 mg/kg/injection, schedule: Q01DX005 (ip), vehicle: water 87 % of control

S=C1Nc2ccccc2CS1
inactive: endpoint: mean survival time, dose: 100.0 mg/kg/injection, schedule: Q01DX001 (ip), vehicle: Klucel (hydroxypropylcellulose) (HPC) 105 % of control | endpoint: mean survival time, dose: 200.0 mg/kg/injection, schedule: Q01DX001 (ip), vehicle: Klucel (hydroxypropylcellulose) (HPC) 102 % of control | endpoint: mean survival time, dose: 400.0 mg/kg/injection, schedule: Q01DX001 (ip), vehicle: Klucel (hydroxypropylcellulose) (HPC) 103 % of control

CC(C)(C)N1CCc2cc3c(cc2C1)OCO3
inactive: endpoint: mean survival time, dose: 50.0 mg/kg/injection, schedule: Q01DX001 (ip), vehicle: saline 100 % of control | endpoint: mean survival time, dose: 75.0 mg/kg/injection, schedule: Q01DX001 (ip), vehicle: saline 103 % of control | [6] 96 % of control and 97 % of control

COC(=O)c1cccc2c(Cl)cc3ccccc3c12
inactive: [3] 105 % of control | [7] 98 % of control | [4] 105 % of control | [8] 104 % of control | [5] 103 % of control | [9] 97 % of control

CC1=C(c2ccccc2)OS(=O)(=O)NC1=O
inactive: endpoint: mean survival time, dose: 12.5 mg/kg/injection, schedule: Q01DX009 (ip), vehicle: water 93 % of control | endpoint: mean survival time, dose: 25.0 mg/kg/injection, schedule: Q01DX009 (ip), vehicle: water 91 % of control | endpoint: mean survival time, dose: 50.0 mg/kg/injection, schedule: Q01DX009 (ip), vehicle: water 93 % of control | endpoint: mean survival time, dose: 100.0 mg/kg/injection, schedule: Q01DX009 (ip), vehicle: water 93 % of control | endpoint: mean survival time, dose: 200.0 mg/kg/injection, schedule: Q01DX009 (ip), vehicle: water 88 % of control

CN(C)c1ccc(C(=O)CCN2CC=C(c3ccccc3)CC2)cc1
inactive: [2] 102 % of control

c1ccc2c(c1)CCCN2
inactive: endpoint: mean survival time, dose: 31.5 mg/kg/injection, schedule: Q04DX003 (ip), vehicle: saline with Tween-80 98 % of control | endpoint: mean survival time, dose: 50.0 mg/kg/injection, schedule: Q04DX003 (ip), vehicle: saline with Tween-80 102 % of control | endpoint: mean survival time, dose: 63.0 mg/kg/injection, schedule: Q04DX003 (ip), vehicle: saline with Tween-80 98 % of control | [7] 102 % of control | endpoint: mean survival time, dose: 125.0 mg/kg/injection, schedule: Q04DX003 (ip), vehicle: saline with Tween-80 106 % of control | [8] 93 % of control | [9] 86 % of control
